According to PMC9867837 (Cancer letters, 2022):

How the values were obtained:
pYStat3C426A = molecular target: T1, pYStat3C426A (Homo sapiens, UniProt P40763, C426A); test: EMSA with purified mutant pYStat3C426A; format: biochemical
T1 construct: made in house; host or cells: E. coli BL21(DE3) TKB1 (inducible tyrosine kinase)
Description: This construct was used to generate the mutants, Stat3C328A, Stat3C426A, Stat3C468A, and Stat3C542S, as described in detail in Supplementary Information “Methods”.
The expression of un-phosphorylated and tyrosine phosphorylated His-tagged recombinant wtStat3 and mutant Stat3 proteins in BL21 (DE3) bacterial cells is described in detail in Supplementary Information “Methods”.
Given the MS data, we conducted site-directed mutagenesis analysis for the effects of Cys mutations (Cys-to-Ala or Cys-to-Ser mutations) on the inhibitory activities or potencies of the compounds. […] Purified, phosphorylated wild-type (wt)Stat3, and phosphorylated mutants, Stat3C328A, Stat3C426A, Stat3C468A, and Stat3C542S protein samples of equal amounts were pre-incubated with or without 3 μM H182 for 30 min at room temperature prior to incubation with the radiolabeled hSIE probe that binds Stat3 and subjecting to EMSA analysis. […] Focusing on the C426 and C468, we next conducted dose-response studies for effects of H182 on Stat3C426A and Stat3C468A. […] Equal proteins used in the DNA-binding assay/EMSA analysis are shown by SDS-PAGE Coomassie staining (Fig. 3B, lower). […]
In another case, the nuclear extract was pre-incubated with the radiolabeled probe for 30 min at 30 °C prior to incubation with increasing concentration of H182 at room temperature for 30 min and subjecting to EMSA analysis. Bands corresponding to Stats DNA- binding activities were scanned and quantified using ImageJ and plotted as a percentage of control (vehicle) against the concentration of the inhibitor, from which the IC50 values were derived . […]
These studies were performed as previously reported using the v-Src -transformed NIH3T3/v-Src fibroblasts [1 -5] . […] Luciferase activity was normalized to total protein concentration of cell lysate, which was determined by Bradford assay (Bio-Rad, Hercules, CA) . […]

[1] = tested on: c-Myc, survivin and vascular endothelial growth factor (VEGF); test: Immunoblotting for Stat3 downstream genes in cells; format: cell-based, human; details: MDA-MB-231, doses that inhibit Stat3 activity
Description: These studies were performed as previously described. Details are presented in Supplementary Information, “Methods”.
Aberrantly-active Stat3 promotes tumor cell growth and proliferation, survival, migration, invasion, and metastasis.
These studies were performed as previously described [1 -3] . Briefly, snap-frozen tumor tissues or cultured cells treated or not were harvested and whole-cell or tissue lysates were prepared in radioimmunoprecipitation assay (RIPA) buffer. Samples of equal total protein were subjected to SDS - PAGE and immunoblotting analysis. Primary antibodies used were anti- Stat3, pY705-Stat3, pS727Stat3, […]
Akt, pT202/Y204Erk1/2 (p44/42), Erk1/2, PARP , caspase 3, c-Myc, survivin, VEGF, β-actin, α/β-tubulin, and GAPDH. For the studies of the effects of cell density and confluence on pY705Stat3, cells were seeded […] in culture dishes. The next day, cells were untreated (DMSO control, […]
0.1%) or treated at the same time with 1 or 2 µM H182, allowed to incubate for the indicated time and then harvested for whole-cell lysate preparation and SDS -PAGE / immunoblotting analy sis. […]
concentration of H182 for 6 h and then treated with 0- 100 nM docetaxel or 0-20 µM cisplatin for a total of 72 h. Viable cell numbers were assessed by a CyQuant cell proliferation kit according to the manufacturer’s instructions (Thermo/Life Technologies Corp, Carlsbad, CA). […]

[2] = Human liver microsome stability; format: in vitro ADME; details: liver microsomes, read-out: Metabolic Stability HLM t1/2
Description: Solubility, human (HLM) and mouse liver microsomal (MLM), and plasma stability studies were performed by Eurofins Cerep Panlabs and Eurofin Discovery Services (www.eurofins.com/PharmaDiscovery), while protein binding studies were performed by Sanford Burnham Prebys Chemical Biology & Drug Discovery Core using standard protocols.

T1 sequence (P40763 127-711 C426A): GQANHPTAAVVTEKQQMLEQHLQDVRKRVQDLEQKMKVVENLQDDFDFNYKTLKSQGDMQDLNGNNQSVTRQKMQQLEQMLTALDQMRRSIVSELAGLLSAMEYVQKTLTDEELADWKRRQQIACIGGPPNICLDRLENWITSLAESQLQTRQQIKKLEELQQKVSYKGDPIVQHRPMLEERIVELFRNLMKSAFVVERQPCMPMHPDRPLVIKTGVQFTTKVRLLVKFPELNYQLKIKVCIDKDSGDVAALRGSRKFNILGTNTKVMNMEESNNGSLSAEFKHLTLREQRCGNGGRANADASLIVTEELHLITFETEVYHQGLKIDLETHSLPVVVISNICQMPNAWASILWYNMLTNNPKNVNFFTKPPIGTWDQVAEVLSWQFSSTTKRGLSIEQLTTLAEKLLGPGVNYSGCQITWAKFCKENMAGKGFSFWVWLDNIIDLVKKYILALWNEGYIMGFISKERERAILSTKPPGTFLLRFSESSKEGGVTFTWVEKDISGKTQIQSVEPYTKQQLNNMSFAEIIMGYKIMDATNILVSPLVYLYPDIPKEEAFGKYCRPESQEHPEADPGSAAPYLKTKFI

O=C([C@H]1CCN1S(=O)(=O)c1c(F)c(F)c(F)c(F)c1F)N(Cc1ccc(C2CCCCC2)cn1)c1ccc2c(=O)[nH]ncc2c1 [Compound H182]
Effect on DNA-binding activity of pYStat3C426A (pYStat3C426A; 3 μM H182, 30 min): unaffected | Effect on pYStat3C426A activity (pYStat3C426A; 10 μM H182): near complete inhibition | IC50 (pYStat3C426A; EMSA, 0–50 μM H182, 30 min): 6 µM | Expression of c-Myc, survivin and VEGF in cells [1]: rapidly suppressed | half-life [2]: 21 min
